Measurements as given in US20060104901A1, “Preventing or treating epithelial tissue damage or hair loss” (priority 2002, published 2006).

System: CD1d gene transcription
Assay: CD1d mRNA by Real Time PCR in primary human keratinocytes under H2O2 chemical stress
Format: cell-based
Details: primary human keratinocytes exposed to 300 μM H2O2, KGM with vs without hydrocortisone, RNA at different times after treatment, FIG. 11
Protocol: Primary human keratinocytes were grown in complete KGM before being exposed to 300 μM H2O2 as a stress factor. 48 hours after seeding, KGM medium was replaced by KGM without hydrocortisone and cultures were treated with 300 μM of H2O2. Total RNA was extracted at different time after treatment and CD1d mRNA quantified by Real Time PCR.
For Taq Man Assays, Applied Biosystems recommends to use 10 to 100 ng of initial RNA quantity per well. Consequently, first strand cDNA synthesis was performed in a 20 μl volume using 1 μg of total RNA and […] of random hexamers following the manufacturer's recommendations (Superscript™ First-Strand Synthesis System for RT-PCR, 11904-018, Invitrogen). 1 μl of the resulting cDNA samples was used for amplification by Real Time PCR. […]
All the cDNA samples were tested in triplicate. […] The plate was sealed, centrifuged at 2000 rpm for 30 seconds and placed in a 5700 Sequence Detection System for thermal cycling and fluorescence analysis using the following PCR program: […]
Results were analyzed using the GeneAmp® 5700 SDS software. […]
The gene expression fold changes obtained in the test condition compared to the control condition were determined by the comparative Ct method using the following formula: [formula] […]

C[C@]12CCC(=O)C=C1CC[C@@H]1[C@@H]2[C@@H](O)C[C@@]2(C)[C@H]1CC[C@]2(O)C(=O)CO [Hydrocortisone]
CD1d gene transcription (CD1d mRNA, fold change by comparative Ct method): able to down-regulate CD1d expression | CD1d gene transcription (CD1d mRNA, fold change by comparative Ct method) (listed as hydrocortisone): suppresses CD1d transcription
